# Patent US11478461B2, “[1.1.1] bicyclo compounds as indoleamine 2,3-dioxygenase inhibitors” (Merck Sharp & Dohme Corp., priority 2018, dated 2022)
# Biological target: IDO1 (Homo sapiens, UniProt P14902)
# Assay: IDO1 Cellular Assay in Hela Cells Stimulated with IFNγ
# Assay type: cell-based
# Conditions: IFNγ 100 ng/mL, 300 uM L-tryptophan, about 48 hours, fluorescence readout, read-out: IDO1 HELA Cell Assay, IC50
# Method in brief: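 HeLa cells stimulated with 100 ng/mL IFNγ, supplemented with 300 uM L-tryptophan, incubated 48 h at 37° C with ten 3-fold compound dilutions. Unstimulated cells served as Max-E control. Kynurenine detected by fluorescence (ex 400/em 510 nm) after overnight methyl isonipecotate reaction; IC50 by four-parameter logistic fit.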
# Chain of IDO1 (P14902 whole entry): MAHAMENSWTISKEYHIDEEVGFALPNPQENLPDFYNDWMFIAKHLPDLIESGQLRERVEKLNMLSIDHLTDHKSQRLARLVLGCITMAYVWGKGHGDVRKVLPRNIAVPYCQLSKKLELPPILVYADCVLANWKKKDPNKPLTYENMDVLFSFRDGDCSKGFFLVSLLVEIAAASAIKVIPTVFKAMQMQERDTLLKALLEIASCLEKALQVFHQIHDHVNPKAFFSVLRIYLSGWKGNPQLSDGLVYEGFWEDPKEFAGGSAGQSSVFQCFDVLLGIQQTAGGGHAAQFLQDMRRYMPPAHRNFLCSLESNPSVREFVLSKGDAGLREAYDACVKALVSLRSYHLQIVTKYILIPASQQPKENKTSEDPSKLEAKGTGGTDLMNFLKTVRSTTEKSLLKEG
row,IC50 [nM],SMILES
1,247,"CC(C(=O)Nc1ccc(F)cc1)C12CC(NC(=O)c3cccc4ccncc34)(C1)C2 (stereo not shown) [Example 130, N-[3-[2-(4-fluoroanilino)-1-methyl-2-oxo-ethyl]-1-bicyclo[1.1.1]pentanyl]isoquinolin-2-ium-8-carboxamide]"
2,17.7,"CCc1cc(C(=O)NC23CC(C(C)C(=O)Nc4ccc(F)cc4)(C2)C3)no1 (stereo not shown) [Example 110, 5-ethyl-N-[3-[2-(4-fluoroanilino)-1-methyl-2-oxo-ethyl]-1-bicyclo[1.1.1]pentanyl]isoxazole-3-carboxamide]"
3,77.2,"Cc1c(Cl)cccc1NC(=O)NC12CC([C@H](C)C(=O)Nc3ccc(F)cc3)(C1)C2 [Example 84, (S)-2-(3-(3-(3-chloro-2-methylphenyl)ureido)bicyclo [1.1.1]pentan-1-yl)-N-(4-fluorophenyl)propanamide]"
4,90.3,"C[C@H](C(=O)Nc1ccc(F)cc1)C12CC(NC(=O)Nc3cccc(C(F)(F)F)c3)(C1)C2 [Example 87, (S)-N-(4-fluorophenyl)-2-(3-(3-(3-(trifluoromethyl)phenyl)ureido)bicyclo[1.1.1]pentan-1-yl)propanamide]"
5,20.4,"CC(C)OC(=O)NC12CC([C@H](C)C(=O)Nc3ccc(F)cc3)(C1)C2 [Example 79, isopropyl (S)-(3-(1-((4-fluorophenyl)amino)-1-oxopropan-2-yl)bicyclo[1.1.1]pentan-1-yl)carbamate]"
6,60.6,"C[C@H](C(=O)Nc1ccc(F)c(C(F)(F)F)c1)C12CC(NC(=O)c3ccc(Cl)c(Cl)c3)(C1)C2 [Example 95, (S)-3,4-dichloro-N-(3-(1-((4-fluoro-3-(trifluoromethyl)phenyl)amino)-1-oxopropan-2-yl)bicyclo[1.1.1]pentan-1-yl)benzamide]"
7,21.8,"C[C@H](C(=O)Nc1ccc(F)cc1)C12CC(NC(=O)OCc3ccccc3)(C1)C2 [Example 78, benzyl (S)-(3-(1-((4-fluorophenyl)amino)-1-oxopropan-2-yl)bicyclo[1.1.1]pentan-1-yl)carbamate]"
8,> 10000,"C[C@@H](C(=O)Nc1ccc(F)cc1)C12CC(NC(=O)OC(C)(C)C)(C1)C2 (single isomer, unassigned) [Example 31]"
9,132,"Cc1cncc(C(=O)NC23CC(C(C)C(=O)Nc4ccc(F)cc4)(C2)C3)c1 (stereo not shown) [Example 122, N-[3-[2-(4-fluoroanilino)-1-methyl-2-oxo-ethyl]-1-bicyclo[1.1.1]pentanyl]-5-methyl-pyridin-1-ium-3-carboxamide]"
10,399,"CC(C(=O)Nc1ccc(F)cc1)C12CC(NC(=O)c3cnc(Cl)cn3)(C1)C2 (stereo not shown) [Example 140, 5-chloro-N-[3-[2-(4-fluoroanilino)-1-methyl-2-oxo-ethyl]-1-bicyclo[1.1.1]pentanyl]pyrazine-2-carboxamide]"
11,23.2,"C[C@H](C(=O)Nc1ccc(C(F)(F)F)cc1)C12CC(NC(=O)c3ccc(Cl)c(Cl)c3)(C1)C2 [Example 98, (S)-3,4-dichloro-N-(3-(1-oxo-1-((4-(trifluoromethyl)phenyl)amino)propan-2-yl)bicyclo[1.1.1]pentan-1-yl)benzamide]"
12,47.3,"CC(C(=O)Nc1ccc(F)cc1)C12CC(NC(=O)c3cnn4ccccc34)(C1)C2 (stereo not shown) [Example 113, N-[3-[2-(4-fluoroanilino)-1-methyl-2-oxo-ethyl]-1-bicyclo[1.1.1]pentanyl]pyrazolo[1,5-a]pyridin-1-ium-3-carboxamide]"
13,153,"C[C@@H](C(=O)Nc1ccc(F)cc1)C12CC(NC(=O)c3ccc(F)c(F)c3)(C1)C2 [Example 43, 3,4-difluoro-N-[3-[(1R)-2-(4-fluoroanilino)-1-methyl-2-oxo-ethyl]-1-bicyclo[1.1.1]pentanyl]benzamide]"
14,248,"CC(C(=O)Nc1ccc(F)cc1)C12CC(NC(=O)c3ccn(C(F)F)n3)(C1)C2 (stereo not shown) [Example 131, 1-(difluoromethyl)-N-[3-[2-(4-fluoroanilino)-1-methyl-2-oxo-ethyl]-1-bicyclo[1.1.1]pentanyl]pyrazole-3-carboxamide]"
15,118,"C[C@@H](C(=O)Nc1cnc(Cl)nc1)C12CC(NC(=O)c3ccc(Cl)c(Cl)c3)(C1)C2 [Example 90, (R)-3,4-dichloro-N-(3-(1-((2-chloropyrimidin-5-yl)amino)-1-oxopropan-2-yl)bicyclo[1.1.1]pentan-1-yl)benzamide]"
16,135,"Cc1cc(C(=O)NC23CC([C@@H](C)C(=O)Nc4ccc(F)cc4)(C2)C3)ccc1Cl [Example 37, 4-chloro-N-[3-[(1R)-2-(4-fluoroanilino)-1-methyl-2-oxo-ethyl]-1-bicyclo[1.1.l]pentanyl]-3-methyl-benzamide]"
17,176,"C[C@H](C(=O)Nc1ccc(F)cc1)C12CC(NC(=O)c3ccc4cccnc4c3)(C1)C2 [Example 147, (S)-N-(3-(1-((4-fluorophenyl)amino)-1-oxopropan-2-yl)bicyclo[1.1.1]pentan-1-yl)quinoline-7-carboxamide]"

row,IC50 [nM],SMILES
1,153,"Cc1ccn2ncc(C(=O)NC34CC(C(C)C(=O)Nc5ccc(F)cc5)(C3)C4)c2c1 (stereo not shown) [Example 124, N-[3-[2-(4-fluoroanilino)-1-methyl-2-oxo-ethyl]-1-bicyclo[1.1.1]pentanyl]-5-methyl-pyrazolo[1,5-a]pyridin-1-ium-3-carboxamide]"
2,13.1,"C[C@H](C(=O)Nc1ccc(F)cc1)C12CC(NC(=O)c3ccnc(C(F)(F)F)c3)(C1)C2 [Example 66, N-[3-[(1S)-2-(4-fluoroanilino)-1-methyl-2-oxo-ethyl]-1-bicyclo[1.1.1]pentanyl]-2-(trifluoromethyl)pyridin-1-ium-4-carboxamide]"
3,250,"Cc1ccc(C(=O)NC23CC([C@H](C)C(=O)Nc4ccc(F)cc4)(C2)C3)cc1Cl [Example 49, 3-chloro-N-[3-[(1S)-2-(4-fluoroanilino)-1-methyl-2-oxo-ethyl]-1-bicyclo[1.1.1]pentanyl]-4-methyl-benzamide]"
4,122,"C[C@@H](C(=O)Nc1ccc(F)cc1)C12CC(NC(=O)c3ccc(F)c(Cl)c3)(C1)C2 [Example 35, 3-chloro-4-fluoro-N-[3-[(1R)-2-(4-fluoroanilino)-1-methyl-2-oxo-ethyl]-1-bicyclo[1.1.1]pentanyl]benzamide]"
5,564,"CC(C(=O)Nc1ccc(Cl)cc1)C12CC(NC(=O)OC3CC3)(C1)C2 (single isomer, unassigned) [Example 19, Cyclopropyl (3-(1-((4-chlorophenyl)amino)-1-oxopropan-2-yl)bicyclo [1.1.1]pentan-1-yl) carbamate]"
6,109,"Cc1cc(C(=O)NC23CC([C@@H](C)C(=O)Nc4ccc(F)cc4)(C2)C3)ccc1Cl [Example 45, 4-chloro-N-[3-[(1R)-2-(4-fluoroanilino)-1-methyl-2-oxo-ethyl]-1-bicyclo[1.1.l]pentanyl]-3-methyl-benzamide]"
7,16.6,"Cc1ccc(C(=O)NC23CC([C@H](C)C(=O)Nc4ccc(F)cc4)(C2)C3)cc1F [Example 58, 3-fluoro-N-[3-[(1S)-2-(4-fluoroanilino)-1-methyl-2-oxo-ethyl]-1-bicyclo[1.1.1]pentanyl]-4-methyl-benzamide]"
8,6.29,"O=C(NC12CC(C3(C(=O)Nc4ccc(F)cc4)CCC3)(C1)C2)c1cccc(Cl)c1 [Example 3, 3-Chloro-N-(3-(1-((4-fluorophenyl)carbamoyl)cyclobutyl)bicyclo [1.1.1]pentan-1-yl) Benzamide]"
9,105,"C[C@H](C(=O)Nc1cnc(Cl)c(Cl)c1)C12CC(NC(=O)c3ccc(Cl)c(Cl)c3)(C1)C2 [Example 93, (S)-3,4-dichloro-N-(3-(1-((5,6-dichloropyridin-3-yl)amino)-1-oxopropan-2-yl)bicyclo[1.1.1]pentan-1-yl)benzamide]"
10,29.2,"CC(C(=O)Nc1ccc(Cl)cc1)C12CC(NC(=O)OC3CC3)(C1)C2 (single isomer, unassigned) [Example 20, Cyclopropyl (3-(1-((4-chlorophenyl)amino)-1-oxopropan-2-yl)bicyclo [1.1.1]pentan-1-yl) carbamate]"
11,73.2,"C[C@H](C(=O)Nc1ccc(F)cc1)C12CC(NC(=O)Nc3ccc(F)cc3)(C1)C2 [Example 85, (S)-N-(4-fluorophenyl)-2-(3-(3-(4-fluorophenyl)ureido)bicyclo [1.1.1]pentan-1-yl)propanamide]"
12,405,"Cc1ccc(C(=O)NC23CC([C@@H](C)C(=O)Nc4ccc(F)cc4)(C2)C3)cc1F [Example 41, 3-fluoro-N-[3-[(1R)-2-(4-fluoroanilino)-1-methyl-2-oxo-ethyl]-1-bicyclo[1.1.l]pentanyl]-4-methyl-benzamide]"
13,6.52,"C[C@H](C(=O)Nc1ccc(F)cc1)C12CC(NC(=O)c3cncc(Cl)c3)(C1)C2 [Example 59, 5-chloro-N-[3-[(1S)-2-(4-fluoroanilino)-1-methyl-2-oxo-ethyl]-1-bicyclo[1.1.1]pentanyl]pyridin-1-ium-3-carboxamide]"
14,83.2,"O=C(NC1(C23CC(NC(=O)c4ccc(Cl)cn4)(C2)C3)CC1)c1ccc(F)cc1 [Example 25, 5-chloro-N-(3-(1-(4-fluorobenzamido)cyclopropyl)bicyclo[1.1.1]pentan-1-yl)picolinamide]"
15,396,"Cc1cc(C(=O)NC23CC(C(C)C(=O)Nc4ccc(F)cc4)(C2)C3)n(C)n1 (stereo not shown) [Example 139, N-[3-[2-(4-fluoroanilino)-1-methyl-2-oxo-ethyl]-1-bicyclo[1.1.1]pentanyl]-2,5-dimethyl-pyrazole-3-carboxamide]"
16,418,"CC(C(=O)Nc1ccc(F)cc1)C12CC(NC(=O)c3cccnc3)(C1)C2 (stereo not shown) [Example 142, N-[3-[2-(4-fluoroanilino)-1-methyl-2-oxo-ethyl]-1-bicyclo[1.1.1]pentanyl]pyridin-1-ium-3-carboxamide]"
17,3.29,"Cc1cc(C(=O)NC23CC([C@H](C)C(=O)Nc4ccc(F)cc4)(C2)C3)ccc1Cl [Example 50, 4-chloro-N-[3-[(1S)-2-(4-fluoroanilino)-1-methyl-2-oxo-ethyl]-1-bicyclo[1.1.l]pentanyl]-3-methyl-benzamide]"
